We go through eleven molecules from patent US10918106B2, “Methods for hydraulic enhancement of crops” (Sound Agriculture Company, priority 2015, dated 2021).

Entries after “also recorded” stand apart in the source; their conditions may differ.

What all share (type): in vivo
One test concerns tested plant. The test is described as follows: Hydraulic enhancement test of plant growth regulators (gibberellins, cytokinins). As to conditions: for hydraulic enhancement by gibberellins: FIG. 16. The method, then: Specific combinations of plant growth regulators (PGRs) were used for hydraulic enhancement and increased harvest yield of crops. PGRs were tested to be co-applied with strigolactones and/or AB compounds (e.g., AB01). PGRs were also tested in the absence of strigolactones and/or AB compounds. […] PGRs were tested as a seed treatment, soil drench, granule formulation, or foliar spray. […] In another experiment, the effect of hydraulic enhancement was also tested with cytokinins, including kinetin, zeatin, 6-benzylaminopurine (6-BAP), diphenylurea, thidiazuron, and their chemical derivatives and analogs.

Test [1] concerns corn (Zea mays) seedlings. The test is described as follows: ex vivo hydraulic enhancement (xVHS) transpiration assay. The method, then: In this assay with corn (Zea mays), seedlings were grown in defined potting soil (in this case, Sunshine Mix #4) for 2 weeks until they were approximately 15 to 20 centimeters tall. Seedlings were then cut at the base of the stem and placed in individual tubes with defined volume of water (FIG. 4A). Hydraulic enhancing chemistry (for example, AB01) was present in the defined volume of water at various concentrations. Excised seedlings were placed in a defined temperature and humidity environment under continuous illumination, and water use was measured after 12, 18, or 24 hours. Using this assay, chemistry or other inputs that induce hydraulic enhancement can be tested and discovered. In this assay, 100 ng of AB01 in acetone was added to 2 week old corn seedlings and water use was monitored over 24 hours.

In another test the test system is plant. The test is described as follows: Hydraulic enhancement test of ABA biosynthesis inhibitor fluridone. As to conditions: fluridone 1 μg (FIG. 15). The procedure:
Using this discovery, it could be reasoned that addition of inhibitors of ABA biosynthesis would result in increased hydraulic enhancement. In another experiment, fluridone was tested for its effect in hydraulic enhancement. Fluridone is an inhibitor of the phytoene destaturase, which is an upstream step in the synthesis of abscisic acid.

On to `c1ccc(CNc2ncnc3nc[nH]c23)cc1` [6-BAP, 6-benzylaminopurine], for which, in the test on tested plant (1 μg (FIG. 17)), the “hydraulic enhancement by cytokinin” value is on record as “improved hydraulic enhancement; also recorded: elicit hydraulic enhancement”. `CC1=CC(Oc2c(C)occc2=O)OC1=O` (stereo not drawn) [AB09, 2-methyl-3-((4-methyl-5-oxo-2,5-dihydrofuran-2-yl)oxy)-4H-pyran-4-one]: the increase in transpiration in test [1] (10Ong added to the xVHS assay (FIG. 12)) amounted to 40%. For the same molecule, the “ability to induce hydraulic enhancement” value in test [1] (screen of AB compounds/strigolactones (FIG. 12)) is given as “able to induce hydraulic enhancement; also recorded: resulted in hydraulic enhancement of crop plants”. As for `C=C1C[C@]23C[C@@]1(O)CC[C@H]2[C@@]12CC[C@H](O)[C@@](C)(C(=O)O1)[C@H]2[C@@H]3C(=O)O` [GA1], the “hydraulic enhancement by gibberellins” value in the test on tested plant is “hydraulic enhancement was elicited”. For the molecule `C=C1C[C@]23C[C@@]1(O)CC[C@H]2[C@@]12C=C[C@H](O)[C@@](C)(C(=O)O1)[C@H]2[C@@H]3C(=O)O` [GA3], in the test on tested plant, the “hydraulic enhancement by gibberellins” value is “hydraulic enhancement was elicited”. Take `C=C1C[C@]23C[C@H]1CC[C@H]2[C@@]12CC[C@H](O)[C@@](C)(C(=O)O1)[C@H]2[C@@H]3C(=O)O` [GA4]: in the test on tested plant, the “hydraulic enhancement by gibberellins” value was “hydraulic enhancement was elicited”. Regarding `C=C1C[C@]23C[C@H]1CC[C@H]2[C@@]12C=C[C@H](O)[C@@](C)(C(=O)O1)[C@H]2[C@@H]3C(=O)O` [GA7], in the test with tested plant, the “hydraulic enhancement by gibberellins” value was “hydraulic enhancement was elicited”.

On to `CC1=CC(=O)CC(C)(C)[C@@]1(O)/C=C/C(C)=C\C(=O)O` [abscisic acid], for which the “effect on hydraulic enhancement in the xVHS assay” value in test [1] (addition of abscisic acid (FIG. 14)) was “inhibited hydraulic enhancement; also recorded: reduce the hydraulic enhancement”. `CC1CC23CC1CCC2C1(C)CCCC(C)(C)C1C3C` (stereo not drawn) [ent-gibberellane]: the “hydraulic enhancement by gibberellins” value with tested plant is on record as “hydraulic enhancement was elicited”. On the same count and under the same terms, the entry for `C=C1C[C@@]23CC[C@@H]4C(C)(C)CCC[C@@]4(C)[C@@H]2CC[C@@H]1C3` [ent-kaurene] is “hydraulic enhancement was elicited”; for `C=C1C[C@]23C[C@@]1(O)CC[C@H]2[C@@]12C=C[C@H](O)[C@@](C)(C(=O)O1)[C@H]2[C@@H]3C(=O)O` [gibberellic acid] it is “improved hydraulic enhancement”. Turning to fluridone, the “effect on hydraulic enhancement” value in the test on plant is listed as “improved hydraulic enhancement; also recorded: increase hydraulic enhancement”.
